Results as given in US20090215884A1, “METHOD FOR WOUND HEALING” (priority 2005, published 2009).

System: PBMC
Test: Cytokine production of stimulated PBMC (Bead Suspension Assay)
Format: cell-based, human
Conditions: 24 h
Protocol: PEP005 was provided as a dry powder. A stock solution of 23.55 mM was prepared in DMSO and aliquots were stored at −20° C. An aliquot of the stock solution was thawed on the day of use and stored at room temperature prior to and during dosing. Intermediate dilution steps were carried out using DMEM cell culture medium.
For the isolation of PBMC freshly drawn human blood treated with Li-Heparin as an anti-coagulant was used. Cells were diluted with three volumes of CliniMACS PBS/EDTA Buffer (Miltenyi, Bergisch Gladbach), carefully layered over FicollPaque (Amersham Biosciences, Freiburg) in a conical tube and centrifuged at 400×g for 40 minutes at 20° C. in a swinging-bucket rotor without brake. The upper layer was aspirated, leaving the mononuclear cell layer undisturbed at the interphase. The interphase cells (lymphocytes, monocytes and thrombocytes) were carefully transferred into a new conical tube. The conical tube was filled with CliniMACS PBS/EDTA Buffer and centrifuged at 300×g for 10 minutes at 20° C. The supernatant was completely removed. For removal of platelets the cell pellet was resuspended in 50 ml of Buffer and centrifuged at 200×g for 10 minutes at 20° C. The supernatant was completely removed and the last washing step was repeated. Cells were resuspended in DMEMMedium (Invitrogen, Karlsruhe) and counted in a Neubauer-hemocytometer.
For the stimulation of PBMC 250.000 cells per well were seeded in a 96-well plate. PBMC of three different healthy donors were stimulated with PEP005 in three different concentrations (1, 10 and 100 nM) or LPS 1 μg/ml (Linaris, Wertheim-Bettingen), PMA 10 ng/ml (Sigma, Deisenhofen) and Ionomycin 1 μg/ml (Sigma, Deisenhofen), respectively. Cells were incubated at 37° C. and 5% CO^2 in a humidified atmosphere for 24 h.
In a typical Bead Suspension Assay a cytokine is captured from a supernatant with bead bound antibodies. The cytokine is quantified with a secondary antibody to complete a sandwich immunoassay. Cytokine concentrations are calculated with the help of a standard curve for each cytokine.
The cytokines IL-1β, IL-2, IL-6, IL-8 and TNF-α were quantitatively measured in the supernatant of the PBMC with a BioRad BioPlex System according to the manufacturer's intructions. All samples were measured in duplicates. All units of detected proteins are pg/ml.
To investigate the immunostimulating effects of PEP005, PBMCs from three different healthy donors were exposed for 24 h to PEP005 at concentrations of 1, 10 and 100 nM. The secretion of IL-1β, IL-2, IL-6, IL-8 and TNF-α into the supernatant was quantitatively measured by flow cytometry with the Bead Suspension Assays. The results are depicted in Tables 1.4-1.8.

[1] = PBMC donor three, PEP005 100 nM
[2] = PBMCs from the three donors, 1 nM PEP005

In the case of `C/C=C(/C)C(=O)O[C@H]1C(C)=C[C@]23C(=O)[C@@H](C=C(CO)[C@@H](O)[C@]12O)[C@H]1[C@@H](C[C@H]3C)C1(C)C` [PEP005, ingenol-3-angelate], the “elevated IL-6 levels in PBMC supernatant (parenthetical, condition not stated)” value is reported as roughly 9 fold, the IL-1β production (PBMC donor one, PEP005 1 nM) is reported as 94.49 pg/mL and the IL-2 production (PBMC donor one, PEP005 1 nM) is reported as 82.68 pg/mL. For the same molecule, the IL-6 production (PBMC donor one, PEP005 1 nM) was 320.61 pg/mL, the IL-8 production (PBMC donor one, PEP005 1 nM) was 13652.6 pg/mL and the TNF-α production (PBMC donor one, PEP005 1 nM) was 148.42 pg/mL. It also gave an IL-1β production (PBMC donor one, PEP005 10 nM) of 61.62 pg/mL, an IL-2 production (PBMC donor one, PEP005 10 nM) of 60.3 pg/mL and an IL-6 production (PBMC donor one, PEP005 10 nM) of 216.09 pg/mL. It also gave an IL-8 production (PBMC donor one, PEP005 10 nM) of 9418.94 pg/mL, a TNF-α production (PBMC donor one, PEP005 10 nM) of 76.14 pg/mL and an IL-1β production (PBMC donor one, PEP005 100 nM) of 0 pg/mL. For the same molecule, the IL-2 production (PBMC donor one, PEP005 100 nM) was 10.56 pg/mL, the IL-6 production (PBMC donor one, PEP005 100 nM) was 0 pg/mL and the IL-8 production (PBMC donor one, PEP005 100 nM) was 52.77 pg/mL. The TNF-α production (PBMC donor one, PEP005 100 nM) was 19.44 pg/mL, the IL-1β production (PBMC donor three, PEP005 1 nM) was 314.73 pg/mL and the IL-2 production (PBMC donor three, PEP005 1 nM) was 54.61 pg/mL. For the same molecule, the IL-6 production (PBMC donor three, PEP005 1 nM) was 131.46 pg/mL, the IL-8 production (PBMC donor three, PEP005 1 nM) was 28029.68 pg/mL and the TNF-α production (PBMC donor three, PEP005 1 nM) was 130.99 pg/mL. The IL-1β production (PBMC donor three, PEP005 10 nM) was 173.33 pg/mL, the IL-2 production (PBMC donor three, PEP005 10 nM) was 31.53 pg/mL and the IL-6 production (PBMC donor three, PEP005 10 nM) was 61.66 pg/mL. The IL-8 production (PBMC donor three, PEP005 10 nM) was 11438.34 pg/mL, the TNF-α production (PBMC donor three, PEP005 10 nM) was 73.48 pg/mL and the IL-1β production [1] was 10.92 pg/mL. It also gave an IL-2 production [1] of 2 pg/mL, an IL-6 production [1] of 0 pg/mL and an IL-8 production [1] of 205.36 pg/mL. For the same molecule, the TNF-α production [1] was 12.93 pg/mL, the IL-1β production (PBMC donor two, PEP005 1 nM) was 125.17 pg/mL and the IL-2 production (PBMC donor two, PEP005 1 nM) was 17.86 pg/mL. For the same molecule, the IL-6 production (PBMC donor two, PEP005 1 nM) was 69.48 pg/mL, the IL-8 production (PBMC donor two, PEP005 1 nM) was 12148.42 pg/mL and the TNF-α production (PBMC donor two, PEP005 1 nM) was 90.72 pg/mL. It also gave an IL-1β production (PBMC donor two, PEP005 10 nM) of 98.04 pg/mL, an IL-2 production (PBMC donor two, PEP005 10 nM) of 19.47 pg/mL and an IL-6 production (PBMC donor two, PEP005 10 nM) of 73.97 pg/mL. It also gave an IL-8 production (PBMC donor two, PEP005 10 nM) of 18220.74 pg/mL, a TNF-α production (PBMC donor two, PEP005 10 nM) of 71.6 pg/mL and an IL-1β production (PBMC donor two, PEP005 100 nM) of 11.76 pg/mL. It also gave an IL-2 production (PBMC donor two, PEP005 100 nM) of 12.84 pg/mL, an IL-6 production (PBMC donor two, PEP005 100 nM) of 95.43 pg/mL and an IL-8 production (PBMC donor two, PEP005 100 nM) of 217.52 pg/mL. The TNF-α production (PBMC donor two, PEP005 100 nM) was 35.75 pg/mL, the “increase of IL-2 levels in the supernatant” value [2] was 20 to 80 fold and the “mean increase of IL-2 levels in the supernatant” value [2] was “approximately 50 fold”. For the same molecule, the “increase of IL-6 levels in PBMC supernatants” value (PEP005 at 1 nM) was 4 to 6 fold, the “increase of IL-8 levels in the supernatant of PBMCs” value (PEP005 at 1 nM) was 3- to 5 fold and the “TNF-α levels in supernatants of PBMCs” value (all three donors, PEP005 at 1 nM) was “approximately 120 nM”.
